Reference: patent US20250215039A1, “NUCLEOSIDES FOR TREATING CANCER” (PRIMEFOUR THERAPEUTICS, INC., priority 2022, published 2025)
Like-named read-outs stand apart in the source and are kept apart here.

Legend:
cancer cell lines = assay: Cancer cell proliferation activity (CellTiterGlo, 72 h); assay type: cell-based; settings: 72 h, 72 h, read-out: IC50 cell proliferation
Procedure, shortened: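 Cells seeded overnight at 37 °C, then dosed with compound at 0.1% final DMSO and incubated 72 h at 37 °C (5% or 10% CO2 by medium).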

[1] = molecular target: human cytidine deaminase (CDA) (Homo sapiens, UniProt P32320); assay: Metabolism by human cytidine deaminase (CDA), substrate absorbance at 290 nm
Chain of human cytidine deaminase (CDA) (P32320 whole entry): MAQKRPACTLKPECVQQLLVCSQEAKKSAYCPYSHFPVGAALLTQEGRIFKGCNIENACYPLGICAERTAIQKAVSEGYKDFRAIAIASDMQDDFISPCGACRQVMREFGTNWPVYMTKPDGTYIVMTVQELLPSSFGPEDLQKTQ
Description: Transfer 7.2 μl of each of the substrate DMSO stock in step 2 into a 500 μl 96-Well V-bottom Microplate, clear SBS footprint, cat #P-96-450V-C
Add 352.8 μl assay buffer to the wells
For deaminated product compounds mix 4 μl product with 196 μl assay buffer
This was incubated at 37° C. for 1 h. 200 μl of this mixture was transferred into the assay plate to serve as the product control.
Product+buffer: mix 80 ul of the 2.5× intermediate product stocks (from step 3) with 120 ul assay buffer into product control (no enzyme) wells
Incubate the plate alongside the 20 nM CDA enzyme intermediate stock at 37° C. to temperature equilibrate reagents
Add 120 μl of the 20 nM enzyme mix into the Substrate+CDA wells and start reading at 290 nm every 30 s for about 60 min
50 and 200 uM substrate and product
In 100 mM Tris, pH 7.5, 100 mM KCl, 0.8% carryover DMSO
5 min incubation at 37° C.
Absorbance at 290 nm every 30 s at 37° C. for 1 h using FlexStation 3
Convert A290 to concentration of substrate remaining at time t after enzyme addition:
[formula] • where: • St=absorbance reading of: substrate+CDA wells at time t • So=Average absorbance reading of: substrate+buffer wells • Po=Average absorbance reading of: product+buffer wells • [S]t=initial substrate concentration • Use GraphPad to plot [substrate] against time to calculate initial velocity or slope (μMs^−1) i.e. the linear range of each curve • Express rate in s^−1 by dividing initial velocity by the total enzyme concentration.
Plot rate against [substrate] and fit data to standard Michaelis Menten equation to obtain kcat and KM parameters.

C[C@]1(CO)O[C@@H](n2ccc(N)nc2=O)C(F)(F)[C@@H]1O [Cpd. No. 190, 4-amino-1-((2R,4R,5R)-3,3-difluoro-4-hydroxy-5-(hydroxymethyl)-5-methyltetrahydrofuran-2-yl)pyrimidin-2(1H)-one]
IC50 (cancer cell lines; 5637 (bladder)): 3.87 µM
IC50 (cancer cell lines; CLS439 (bladder)): > 50 µM
IC50 (cancer cell lines; HS729 (muscle)): 4.74 µM
IC50 (cancer cell lines; J82 (bladder)): > 50 µM
IC50 (cancer cell lines; JAR (placenta)): > 50 µM
IC50 (cancer cell lines; MT3 (breast)): 1.08 µM
IC50 (cancer cell lines; PANCI (pancreas)): > 50 µM
IC50 (cancer cell lines; PC3 (prostate)): 1.46 µM
IC50 (cancer cell lines; RD (muscle)): > 50 µM
IC50 (cancer cell lines; T24 (bladder)): 3.21 µM
IC50 (cancer cell lines; Homo sapiens, 22Rv1, 72 h, 22RV1 (prostate)): > 50 µM
IC50 (cancer cell lines; Homo sapiens, 786-0, 72 h, 786O (kidney)): > 50 µM
IC50 (cancer cell lines; Homo sapiens, A204, 72 h, A204 (muscle)): 0.17 µM
IC50 (cancer cell lines; Homo sapiens, A549, 72 h, A549 (lung)): 2.9 µM
IC50 (cancer cell lines; Homo sapiens, A673, 72 h, A673 (bone)): > 50 µM
IC50 (cancer cell lines; Homo sapiens, A2780, 72 h, A2780 (ovary)): 5.39 µM
IC50 (cancer cell lines; Homo sapiens, A-375, 72 h, A375 (skin)): > 50 µM
IC50 (cancer cell lines; Homo sapiens, A-431, 72 h, A431 (skin)): 3.8 µM
IC50 (cancer cell lines; Homo sapiens, ACHN, ACHN (kidney)): 2.85 µM
IC50 (cancer cell lines; Homo sapiens, ASPC1, 72 h, ASPC1 (pancreas)): > 50 µM
IC50 (cancer cell lines; Homo sapiens, BT-20, 72 h, BT20 (breast)): > 50 µM
IC50 (cancer cell lines; Homo sapiens, BXPC-3, 72 h, BXPC3 (pancreas)): > 50 µM
IC50 (cancer cell lines; Homo sapiens, C-33-A, C33A (endometrial)): 2.08 µM
IC50 (cancer cell lines; Homo sapiens, CAKI-1, 72 h, CAKI1 (kidney)): 1.07 µM
IC50 (cancer cell lines; Homo sapiens, COLO 205, 72 h, COLO205 (colon)): 3.03 µM
IC50 (cancer cell lines; Homo sapiens, COLO-678, 72 h, COLO678 (colon)): > 50 µM
IC50 (cancer cell lines; Homo sapiens, Ca-Ski, CASKI (endometrial)): > 50 µM
IC50 (cancer cell lines; Homo sapiens, Caco-2, 72 h, CACO2 (colon)): > 50 µM
IC50 (cancer cell lines; Homo sapiens, Calu-6, 72 h, CALU6 (lung)): 5.25 µM
IC50 (cancer cell lines; Homo sapiens, DLD-1, 72 h, DLD1 (colon)): > 50 µM
IC50 (cancer cell lines; Homo sapiens, DU-145, 72 h, DU145 (prostate)): 3.18 µM
IC50 (cancer cell lines; Homo sapiens, EFO-21, 72 h, EFO21 (ovary)): > 50 µM
IC50 (cancer cell lines; Homo sapiens, EJ-28, 72 h, EJ28 (bladder)): > 50 µM
IC50 (cancer cell lines; Homo sapiens, Granta-519, 72 h, GRANTA-519 (hematological)): 1.24 µM
IC50 (cancer cell lines; Homo sapiens, HCT-15, 72 h, HCT15 (colon)): 3.1 µM
IC50 (cancer cell lines; Homo sapiens, HCT-116, 72 h, HCT116 (colon)): 3.28 µM
IC50 (cancer cell lines; Homo sapiens, HEK293, 72 h, HEK293 (kidney)): > 50 µM
IC50 (cancer cell lines; Homo sapiens, HL-60, 72 h, HL-60 (hematological)): > 50 µM
IC50 (cancer cell lines; Homo sapiens, HT-29, 72 h, HT29 (colon)): > 50 µM
IC50 (cancer cell lines; Homo sapiens, HT-1080, 72 h, HT1080 (connective tissue)): 4.73 µM
IC50 (cancer cell lines; Homo sapiens, HeLa, HELA (endometrial)): > 50 µM
IC50 (cancer cell lines; Homo sapiens, HepG2, 72 h, HEPG2 (liver)): > 50 µM
IC50 (cancer cell lines; Homo sapiens, Hs-578T, HS578T (breast)): > 50 µM
IC50 (cancer cell lines; Homo sapiens, IGROV-1, 72 h, IGROV1 (ovary)): 4.31 µM
IC50 (cancer cell lines; Homo sapiens, IMR-90, 72 h, IMR90 (lung)): > 50 µM
IC50 (cancer cell lines; Homo sapiens, JEG-3, 72 h, JEG3 (placenta)): > 50 µM
IC50 (cancer cell lines; Homo sapiens, JIMT-1, 72 h, JIMT1 (breast)): 2.23 µM
IC50 (cancer cell lines; Homo sapiens, K562, 72 h, K-562 (hematological)): > 50 µM
IC50 (cancer cell lines; Homo sapiens, Kasumi 1, 72 h, KASUMI-1 (hematological)): 2.23 µM
IC50 (cancer cell lines; Homo sapiens, L-363, 72 h, L-363 (hematological)): > 50 µM
IC50 (cancer cell lines; Homo sapiens, LoVo, LOVO (colon)): 2.74 µM
IC50 (cancer cell lines; Homo sapiens, MCF7, 72 h, MCF7 (breast)): > 50 µM
IC50 (cancer cell lines; Homo sapiens, MDA-MB-231, 72 h, MDAMB231 (breast)): 2.23 µM
IC50 (cancer cell lines; Homo sapiens, MDA-MB-435, 72 h, MDAMB435 (skin)): 4.7 µM
IC50 (cancer cell lines; Homo sapiens, MDA-MB-436, 72 h, MDAMB436 (breast)): > 50 µM
IC50 (cancer cell lines; Homo sapiens, MDA-MB-468, 72 h, MDAMB468 (breast)): > 50 µM
IC50 (cancer cell lines; Homo sapiens, MG-63, 72 h, MG63 (bone)): > 50 µM
IC50 (cancer cell lines; Homo sapiens, MHH-ES-1, 72 h, MHHES1 (bone)): > 50 µM
IC50 (cancer cell lines; Homo sapiens, MIA PaCa-2, 72 h, MIAPACA2 (pancreas)): > 50 µM
IC50 (cancer cell lines; Homo sapiens, MINO, MINO (hematological)): 0.43 µM
IC50 (cancer cell lines; Homo sapiens, MV4-11, 72 h, MV4-11 (hematological)): 3.8 µM
IC50 (cancer cell lines; Homo sapiens, NCI-H23, 72 h, NCI-H23 (lung)): > 50 µM
IC50 (cancer cell lines; Homo sapiens, NCI-H82, 72 h, NCIH82 (lung)): > 50 µM
IC50 (cancer cell lines; Homo sapiens, NCI-H292, 72 h, NCIH292 (lung)): > 50 µM
IC50 (cancer cell lines; Homo sapiens, NCI-H460, 72 h, NCIH460 (lung)): 5.68 µM
IC50 (cancer cell lines; Homo sapiens, OVCAR-3, 72 h, OVCAR3 (ovary)): 2.57 µM
IC50 (cancer cell lines; Homo sapiens, OVCAR-4, 72 h, OVCAR4 (ovary)): > 50 µM
IC50 (cancer cell lines; Homo sapiens, PLC-PRF-5, 72 h, PLCPRF5 (liver)): > 50 µM
IC50 (cancer cell lines; Homo sapiens, Panc1005, 72 h, PANC1005 (pancreas)): > 50 µM
IC50 (cancer cell lines; Homo sapiens, Ramos, RAMOS (hematological)): 2.69 µM
IC50 (cancer cell lines; Homo sapiens, SAOS-2, 72 h, SAOS2 (bone)): 1.49 µM
IC50 (cancer cell lines; Homo sapiens, SF-268, 72 h, SF268 (brain)): 3.8 µM
IC50 (cancer cell lines; Homo sapiens, SF-295, 72 h, SF295 (brain)): > 50 µM
IC50 (cancer cell lines; Homo sapiens, SK-BR-3, 72 h, SKBR3 (breast)): 4.56 µM
IC50 (cancer cell lines; Homo sapiens, SK-HEP1, 72 h, SKHEP1 (liver)): 2.54 µM
IC50 (cancer cell lines; Homo sapiens, SK-LMS-1, 72 h, SKLMS1 (uterus)): > 50 µM
IC50 (cancer cell lines; Homo sapiens, SK-MEL-5, 72 h, SKMEL5 (skin; SKMELS [sic] in Table 9E)): > 50 µM
IC50 (cancer cell lines; Homo sapiens, SK-MEL-28, 72 h, SKMEL28 (skin)): > 50 µM
IC50 (cancer cell lines; Homo sapiens, SK-N-AS, SKNAS (brain)): > 50 µM
IC50 (cancer cell lines; Homo sapiens, SK-N-SH, SKNSH (brain)): > 50 µM
IC50 (cancer cell lines; Homo sapiens, SK-OV-3, 72 h, SKOV3 (ovary)): > 50 µM
IC50 (cancer cell lines; Homo sapiens, SNB-75, 72 h, SNB75 (brain)): > 50 µM
IC50 (cancer cell lines; Homo sapiens, SU-DHL10, 72 h, SU-DHL-10 (hematological)): 2.73 µM
IC50 (cancer cell lines; Homo sapiens, SU-DHL-6, 72 h, SU-DHL-6 (hematological)): 2.87 µM
IC50 (cancer cell lines; Homo sapiens, SW-620, 72 h, SW620 (colon)): 4.6 µM
IC50 (cancer cell lines; Homo sapiens, TE-671, 72 h, TE671 (muscle)): > 50 µM
IC50 (cancer cell lines; Homo sapiens, THP-1, 72 h, THP-1 (hematological)): 3.44 µM
IC50 (cancer cell lines; Homo sapiens, U2OS, U20S (bone; U2OS in Table 9E)): > 50 µM
IC50 (cancer cell lines; Homo sapiens, U-87 MG, U87MG (brain)): 2.91 µM
IC50 (cancer cell lines; Homo sapiens, UMUC3, 72 h, UMUC3 (bladder)): > 50 µM
IC50 (cancer cell lines; Homo sapiens, UO-31, 72 h, UO31 (kidney)): 8.13 µM
IC50 (cancer cell lines; Homo sapiens, WSU-NHL, WSU-NHL (hematological)): 1.67 µM
IC50 (cancer cell lines; NCI-H358M, NCIH358M (lung)): 1.04 µM
IC50 (cancer cell lines; PBMC, PBMC (hematological)): 2.61 µM
IC50 (cancer cell lines; RD-ES, RDES (bone)): > 50 µM
metabolism (deamination) by human CDA (line graph) ([1]; 12 nM CDA, 50 and 200 uM substrate, 37° C., pH 7.5, figure legends FIG. 4-9): not metabolized
substrate conversion by CDA (Inactive) ([1]; rate of substrate conversion at 200 μM, could not be fitted): Inactive
